How the values were obtained:
Experiment in all cases: Protocol A: diffusion on agar in Petri dishes
Type in all cases: cell-based
[1] = tested on: Enterococcus faecium
Method: (§1) The culture medium used was a mixture of 21 g/L of Muller-Hinton broth and 10 g/L of agar in water. This mixture was stirred and then left to boil. Next, a step of autoclaving of this mixture for 30 minutes was necessary in order to sterilize it before any manipulation. This culture medium was poured, while hot, into Petri dishes and then left to cool.
(§2) 5 milligrams of RhamOC4 were dissolved in 1 mL of DMSO. Twofold serial dilution with DMSO was then performed starting with the stock solution, so as to obtain the concentrations 2.5 g·L^−1, 1.25 g·L^−1, 0.625 g·L^−1 and 0.3125 g·L^−1.
(§3) The bacterial strains used were Pseudomonas aeruginosa, Escherichia coli, Enterococcus faecium and Staphylococcus aureus, in addition to the fungal strain Candida albicans. 10^6 bacteria were collected and then transferred into a 0.9% NaCl solution. Each Petri dish, containing the Muller-Hinton medium, was inoculated with a different bacterial suspension.
(§4) After having left the bacterial suspensions to dry on the agar, 10 μL of the test solution (RhamOC4), at various concentrations, were deposited on the surface of the agar inoculated with the bacterial suspension. 10 μL of DMSO were placed in each Petri dish as negative control.
(§5) The positive controls used were discs soaked with ampicillin for Escherichia coli and Enterococcus faecium, ceftazidim discs for Pseudomonas aeruginosa and vancomycin discs for Staphylococcus aureus.
(§6) After drying, the Petri dishes were finally incubated at 37° C. in an oven for 24 hours. The antibacterial activity was evaluated by measuring the clarification zone in mm around the place of deposition of the various concentrations of the test RhamOC4 solution.

[2] = tested on: Escherichia coli
Method: as §1, §2, §3, §4, §5, §6

[3] = tested on: Pseudomonas aeruginosa
Method: as §1, §2, §3, §4, §5, §6

[4] = tested on: Staphylococcus aureus
Method: as §1, §2, §3, §4, §5, §6

[5] = tested on: Candida albicans
Method: as §1, §2, §3, §4, §6

[6] = antibiotic disc, concentration not given

CC1(C)S[C@@H]2[C@H](NC(=O)[C@H](N)c3ccccc3)C(=O)N2[C@H]1C(=O)O [Ampicillin, ampicillin, reference compound]
Clarification zone, E. faecium, positive control [1, 6]: (26 mm)
Clarification zone, E. coli, positive control [2, 6]: (22 mm)

CC(C)(O/N=C(\C(=O)N[C@@H]1C(=O)N2C(C(=O)[O-])=C(C[n+]3ccccc3)CS[C@H]12)c1csc(N)n1)C(=O)O [Ceftazidim, ceftazidim, reference compound]
Clarification zone, P. aeruginosa, positive control [3, 6]: (28 mm)

CCCCO[C@@H]1O[C@@H](C)[C@H](O)[C@@H](O)[C@H]1O [RhamOC4, n-butyl α-L-rhamnopyranoside]
zone of inhibition at 0.3125 mg/mL ([1]; Enterococcus faecium, 0.3125 mg·mL^−1, 10 μL, 24 hours 37° C., read-out: Clarification zone, E. faecium): 0 mm
zone of inhibition at 0.625 mg/mL ([1]; Enterococcus faecium, 0.625 mg·mL^−1, 10 μL, 24 hours 37° C., read-out: Clarification zone, E. faecium): 0 mm
zone of inhibition at 1.25 mg/mL ([1]; Enterococcus faecium, 1.25 mg·mL^−1, 10 μL, 24 hours 37° C., read-out: Clarification zone, E. faecium): 0 mm
zone of inhibition at 2.5 mg/mL ([1]; Enterococcus faecium, 2.5 mg·mL^−1, 10 μL, 24 hours 37° C., read-out: Clarification zone, E. faecium): 4 mm
zone of inhibition at 5 µg/mL ([1]; Enterococcus faecium, 5 mg·mL^−1, 10 μL, 24 hours 37° C., read-out: Clarification zone, E. faecium): 6 mm
zone of inhibition at 0.3125 mg/mL ([2]; Escherichia coli, 0.3125 mg·mL^−1, 10 μL, 24 hours 37° C., read-out: Clarification zone, E. coli): 0 mm
zone of inhibition at 0.625 mg/mL ([2]; Escherichia coli, 0.625 mg·mL^−1, 10 μL, 24 hours 37° C., read-out: Clarification zone, E. coli): 0 mm
zone of inhibition at 1.25 mg/mL ([2]; Escherichia coli, 1.25 mg·mL^−1, 10 μL, 24 hours 37° C., read-out: Clarification zone, E. coli): 0 mm
zone of inhibition at 2.5 mg/mL ([2]; Escherichia coli, 2.5 mg·mL^−1, 10 μL, 24 hours 37° C., read-out: Clarification zone, E. coli): 4 mm
zone of inhibition at 5 mg/mL ([2]; Escherichia coli, 5 mg·mL^−1, 10 μL, 24 hours 37° C., read-out: Clarification zone, E. coli): 9 mm
zone of inhibition at 0.3125 mg/mL ([3]; Pseudomonas aeruginosa, 0.3125 mg·mL^−1, 10 μL, 24 hours 37° C., read-out: Clarification zone, P. aeruginosa): 0 mm
zone of inhibition at 0.625 mg/mL ([3]; Pseudomonas aeruginosa, 0.625 mg·mL^−1, 10 μL, 24 hours 37° C., read-out: Clarification zone, P. aeruginosa): 0 mm
zone of inhibition at 1.25 mg/mL ([3]; Pseudomonas aeruginosa, 1.25 mg·mL^−1, 10 μL, 24 hours 37° C., read-out: Clarification zone, P. aeruginosa): 0 mm
zone of inhibition at 2.5 mg/mL ([3]; Pseudomonas aeruginosa, 2.5 mg·mL^−1, 10 μL, 24 hours 37° C., read-out: Clarification zone, P. aeruginosa): 0 mm
zone of inhibition at 5 mg/mL ([3]; Pseudomonas aeruginosa, 5 mg·mL^−1, 10 μL, 24 hours 37° C., read-out: Clarification zone, P. aeruginosa): 4 mm
Inhibitory power on growth of Pseudomonas aeruginosa ([3]; summary of agar diffusion): poor inhibitory power
zone of inhibition at 0.3125 mg/mL ([4]; Staphylococcus aureus, 0.3125 mg·mL^−1, 10 μL, 24 hours 37° C., read-out: Clarification zone, S. aureus): 0 mm
zone of inhibition at 0.625 mg/mL ([4]; Staphylococcus aureus, 0.625 mg·mL^−1, 10 μL, 24 hours 37° C., read-out: Clarification zone, S. aureus): 0 mm
zone of inhibition at 1.25 mg/mL ([4]; Staphylococcus aureus, 1.25 mg·mL^−1, 10 μL, 24 hours 37° C., read-out: Clarification zone, S. aureus): 5 mm
zone of inhibition at 2.5 mg/mL ([4]; Staphylococcus aureus, 2.5 mg·mL^−1, 10 μL, 24 hours 37° C., read-out: Clarification zone, S. aureus): 5 mm
zone of inhibition at 5 mg/mL ([4]; Staphylococcus aureus, 5 mg·mL^−1, 10 μL, 24 hours 37° C., read-out: Clarification zone, S. aureus): 10.5 mm
Capacity to inhibit growth of Staphylococcus aureus ([4]; summary of agar diffusion): very good capacity to inhibit the growth
zone of inhibition at 0.3125 mg/mL ([5]; Candida albicans, 0.3125 mg·mL^−1, 10 μL, 24 hours 37° C., read-out: Clarification zone, C. albicans): 0 mm
zone of inhibition at 0.625 mg/mL ([5]; Candida albicans, 0.625 mg·mL^−1, 10 μL, 24 hours 37° C., read-out: Clarification zone, C. albicans): 0 mm
zone of inhibition at 1.25 mg/mL ([5]; Candida albicans, 1.25 mg·mL^−1, 10 μL, 24 hours 37° C., read-out: Clarification zone, C. albicans): 5 mm
zone of inhibition at 2.5 mg/mL ([5]; Candida albicans, 2.5 mg·mL^−1, 10 μL, 24 hours 37° C., read-out: Clarification zone, C. albicans): 14 mm
zone of inhibition at 5 mg/mL ([5]; Candida albicans, 5 mg·mL^−1, 10 μL, 24 hours 37° C., read-out: Clarification zone, C. albicans): 18 mm
Capacity to inhibit growth of Candida albicans ([5]; summary of agar diffusion): very good capacity to inhibit the growth

CN[C@H](CC(C)C)C(=O)N[C@H]1C(=O)N[C@@H](CC(N)=O)C(=O)N[C@H]2C(=O)N[C@H]3C(=O)N[C@H](C(=O)N[C@H](C(=O)O)c4cc(O)cc(O)c4-c4cc3ccc4O)[C@H](O)c3ccc(c(Cl)c3)Oc3cc2cc(c3O[C@@H]2O[C@H](CO)[C@@H](O)[C@H](O)[C@H]2O[C@H]2C[C@](C)(N)[C@H](O)[C@H](C)O2)Oc2ccc(cc2Cl)[C@H]1O [Vancomycin, vancomycin, reference compound]
Clarification zone, S. aureus, positive control [4, 6]: (19 mm)
